{"source": "patent US20260232767A1", "about": "“INTERLEUKIN-23 RECEPTOR ANTAGONIST PEPTIDES FOR USE IN THE TREATMENT OF PSORIASIS” (Janssen Pharmaceutica NV, priority 2023, published 2026)", "test_system": "subjects with moderate-to-severe plaque psoriasis", "assay": "Safety, adverse events, Example 2 through Week 56", "type": "in vivo, human", "conditions": "25 mg QD, through Week 56", "description": "The LTE safety analysis was based on randomized participants in Example who entered the present long-term extension study and received at least one dose of study intervention (including a partial dose) during the study period.", "data": [{"compound": "CC(=O)NCCCC[C@@H]1NC(=O)[C@H](Cc2c[nH]c3c(C)cccc23)NC(=O)[C@H]([C@@H](C)O)NC(=O)[C@H](CC(N)=O)NC(=O)[C@@H](NC(C)=O)C(C)(C)SSC(C)(C)[C@@H](C(=O)N[C@@H](Cc2ccc(OCCN)cc2)C(=O)N[C@@H](Cc2ccc3ccccc3c2)C(=O)NC2(C(=O)N[C@@H](CCC(=O)O)C(=O)N[C@@H](CC(N)=O)C(=O)N[C@@H](Cc3cccnc3)C(=O)N(C)CC(N)=O)CCOCC2)NC1=O", "note": "[IL-23 receptor antagonist peptide, Ac-[Pen]*-N-T-[W(7-Me)]-[Lys(Ac)]-[Pen]*-Phe[4-(2-aminoethoxy)]-[2-Nal]-[THP]-E-N-[3-Pal]-Sarc-NH2 (*[Pen]-[Pen]* formdisulfidebond)]", "values": [{"measurement": "Cardiac disorders: number of subjects", "result": 0}, {"measurement": "Chills: number of subjects", "result": 0}, {"measurement": "Cholelithiasis: number of subjects", "result": 0}, {"measurement": "Chronic obstructive pulmonary disease: number of subjects", "result": 0}, {"measurement": "Coronary artery disease: number of subjects", "result": 0}, {"measurement": "Cough: % of subjects", "result": "(2.3%)"}, {"measurement": "Cough: number of subjects", "result": 1}, {"measurement": "Decreased appetite: % of subjects", "result": "(2.3%)"}, {"measurement": "Decreased appetite: number of subjects", "result": 1}, {"measurement": "Depression: number of subjects", "result": 0}, {"measurement": "Dermal cyst: % of subjects", "result": "(2.3%)"}, {"measurement": "Dermal cyst: number of subjects", "result": 1}, {"measurement": "Dermatitis acneiform: number of subjects", "result": 0}, {"measurement": "Dermatitis contact: number of subjects", "result": 0}, {"measurement": "Diabetes mellitus: % of subjects", "result": "(2.3%)"}, {"measurement": "Diabetes mellitus: number of subjects", "result": 1}, {"measurement": "Diffuse alopecia: % of subjects", "result": "(2.3%)"}, {"measurement": "Diffuse alopecia: number of subjects", "result": 1}, {"measurement": "Dysuria: number of subjects", "result": 0}, {"measurement": "Ear and labyrinth disorders: % of subjects", "result": "(2.3%)"}, {"measurement": "Ear and labyrinth disorders: number of subjects", "result": 1}, {"measurement": "Endocrine disorders: number of subjects", "result": 0}, {"measurement": "Eye disorders: number of subjects", "result": 0}, {"measurement": "Eyelid skin dryness: number of subjects", "result": 0}, {"measurement": "Fatigue: number of subjects", "result": 0}, {"measurement": "General disorders and administration site conditions: % of subjects", "result": "(2.3%)"}, {"measurement": "General disorders and administration site conditions: number of subjects", "result": 1}, {"measurement": "Goiter: number of subjects", "result": 0}, {"measurement": "Haemochromatosis: number of subjects", "result": 0}, {"measurement": "Hand dermatitis: number of subjects", "result": 0}, {"measurement": "Hematuria: number of subjects", "result": 0}, {"measurement": "Hepatobiliary disorders: % of subjects", "result": "(2.3%)"}, {"measurement": "Hepatobiliary disorders: number of subjects", "result": 1}, {"measurement": "Hypercholesterolemia: number of subjects", "result": 0}, {"measurement": "Hyperglycemia: number of subjects", "result": 0}, {"measurement": "Hyperlipidemia: number of subjects", "result": 0}, {"measurement": "Hypertension: number of subjects", "result": 0}, {"measurement": "Hypertransaminasemia: number of subjects", "result": 0}, {"measurement": "Hypertriglyceridemia: % of subjects", "result": "(2.3%)"}, {"measurement": "Hypertriglyceridemia: number of subjects", "result": 1}, {"measurement": "Hypoacusis: number of subjects", "result": 0}, {"measurement": "Immune system disorders: number of subjects", "result": 0}, {"measurement": "Influenza like illness: number of subjects", "result": 0}, {"measurement": "Insomnia: number of subjects", "result": 0}, {"measurement": "Intertrigo: number of subjects", "result": 0}, {"measurement": "Ketonuria: number of subjects", "result": 0}, {"measurement": "Leukocyturia: number of subjects", "result": 0}, {"measurement": "Leukopenia: number of subjects", "result": 0}, {"measurement": "Libido decreased: number of subjects", "result": 0}, {"measurement": "Liver disorder: number of subjects", "result": 0}, {"measurement": "Lymphopenia: number of subjects", "result": 0}, {"measurement": "Menopause: number of subjects", "result": 0}, {"measurement": "Metabolism and nutrition disorders: % of subjects", "result": "(4.7%)"}, {"measurement": "Metabolism and nutrition disorders: number of subjects", "result": 2}, {"measurement": "Neoplasms benign, malignant and unspecified (incl cysts and polyps): number of subjects", "result": 0}, {"measurement": "Nephrolithiasis: number of subjects", "result": 0}, {"measurement": "Neutropenia: number of subjects", "result": 0}, {"measurement": "Night sweats: number of subjects", "result": 0}, {"measurement": "Non-cardiac chest pain: number of subjects", "result": 0}, {"measurement": "Ocular cyst: number of subjects", "result": 0}, {"measurement": "Oedema peripheral: number of subjects", "result": 0}, {"measurement": "Oropharyngeal pain: number of subjects", "result": 0}, {"measurement": "Procedural pain: number of subjects", "result": 0}, {"measurement": "Productive cough: number of subjects", "result": 0}, {"measurement": "Proteinuria: number of subjects", "result": 0}, {"measurement": "Pruritus: number of subjects", "result": 0}, {"measurement": "Psoriasis: number of subjects", "result": 0}, {"measurement": "Psychiatric disorders: number of subjects", "result": 0}, {"measurement": "Pyrexia: % of subjects", "result": "(2.3%)"}, {"measurement": "Pyrexia: number of subjects", "result": 1}, {"measurement": "Rash pruritic: number of subjects", "result": 0}, {"measurement": "Renal and urinary disorders: % of subjects", "result": "(2.3%)"}, {"measurement": "Renal and urinary disorders: number of subjects", "result": 1}, {"measurement": "Renal mass: % of subjects", "result": "(2.3%)"}, {"measurement": "Renal mass: number of subjects", "result": 1}, {"measurement": "Respiratory, thoracic and mediastinal disorders: % of subjects", "result": "(2.3%)"}, {"measurement": "Respiratory, thoracic and mediastinal disorders: number of subjects", "result": 1}, {"measurement": "Retinal vein occlusion: number of subjects", "result": 0}, {"measurement": "Rhinorrhoea: number of subjects", "result": 0}, {"measurement": "Seasonal allergy: number of subjects", "result": 0}, {"measurement": "Skin and subcutaneous tissue disorders: % of subjects", "result": "(7.0%)"}, {"measurement": "Skin and subcutaneous tissue disorders: number of subjects", "result": 3}, {"measurement": "Skin laceration: number of subjects", "result": 0}, {"measurement": "Skin papilloma: number of subjects", "result": 0}, {"measurement": "Social circumstances: number of subjects", "result": 0}, {"measurement": "Steatohepatitis: % of subjects", "result": "(2.3%)"}, {"measurement": "Steatohepatitis: number of subjects", "result": 1}, {"measurement": "Subjects with 1 or more treatment-emergent serious adverse events", "result": 0}, {"measurement": "Subjects with AE leading to discontinuation: Abdominal discomfort", "result": 0}, {"measurement": "Subjects with AE leading to discontinuation: Abdominal pain", "result": 0}, {"measurement": "Subjects with AE leading to discontinuation: Asthenia", "result": 0}, {"measurement": "Subjects with AE leading to discontinuation: Chills", "result": 0}, {"measurement": "Subjects with AE leading to discontinuation: Ear and labyrinth disorders", "result": 0}, {"measurement": "Subjects with AE leading to discontinuation: Gastrointestinal disorders", "result": 0}, {"measurement": "Subjects with AE leading to discontinuation: General disorders and administration site conditions", "result": 0}, {"measurement": "Subjects with AE leading to discontinuation: Headache", "result": 0}, {"measurement": "Subjects with AE leading to discontinuation: Insomnia", "result": 0}, {"measurement": "Subjects with AE leading to discontinuation: Nausea", "result": 0}, {"measurement": "Subjects with AE leading to discontinuation: Nervous system disorders", "result": 0}, {"measurement": "Subjects with AE leading to discontinuation: Proctalgia", "result": 0}, {"measurement": "Subjects with AE leading to discontinuation: Psoriasis", "result": 0}, {"measurement": "Subjects with AE leading to discontinuation: Psychiatric disorders", "result": 0}, {"measurement": "Subjects with AE leading to discontinuation: Skin and subcutaneous tissue disorders", "result": 0}, {"measurement": "Subjects with AE leading to discontinuation: Suicide attempt", "result": 0}, {"measurement": "Subjects with AE leading to discontinuation: Vertigo", "result": 0}, {"measurement": "Subjects with AE leading to discontinuation: Vomiting", "result": 0}, {"measurement": "Subjects with COVID-19 associated AE: SARS-CoV-2 test positive", "result": 0}, {"measurement": "Subjects with treatment-emergent AE: Influenza", "result": 0}, {"measurement": "Subjects with treatment-emergent serious AE: COVID-19", "result": 0}, {"measurement": "Subjects with treatment-emergent serious AE: Cardiac disorders", "result": 0}, {"measurement": "Subjects with treatment-emergent serious AE: Cerebrovascular accident", "result": 0}, {"measurement": "Subjects with treatment-emergent serious AE: Coronary artery disease", "result": 0}, {"measurement": "Subjects with treatment-emergent serious AE: Diverticulitis", "result": 0}, {"measurement": "Subjects with treatment-emergent serious AE: Foot deformity", "result": 0}, {"measurement": "Subjects with treatment-emergent serious AE: General disorders and administration site conditions", "result": 0}, {"measurement": "Subjects with treatment-emergent serious AE: Infected cyst", "result": 0}, {"measurement": "Subjects with treatment-emergent serious AE: Infections and infestations", "result": 0}, {"measurement": "Subjects with treatment-emergent serious AE: Injury, poisoning and procedural complications", "result": 0}, {"measurement": "Subjects with treatment-emergent serious AE: Intervertebral disc protrusion", "result": 0}, {"measurement": "Subjects with treatment-emergent serious AE: Ligament injury", "result": 0}, {"measurement": "Subjects with treatment-emergent serious AE: Musculoskeletal and connective tissue disorders", "result": 0}]}]}
